One test has as its target mPD-L1 (Mus musculus, UniProt Q9EP73). Put plainly: Blockade of the mouse PD-1/PD-L1 interaction, mouse PD-L1 protein. The format is binding. Details: purchased G&P Biosciences FCL3502B (PD-L1). The procedure: Ninety-six-well plates were coated with 100 ng of PD-L1 protein (G&P Biosciences, human PD-L1 ECD, cat #FCL0784B. mouse PD-L1, cat #FCL3502B) and later blocked with 2% BSA for 2 hours at room temperature. Various concentrations of peptides were loaded into the wells and incubated for 1 hour at room temperature. […] Streptavidin-HRP (R & D systems) and chromogenic substrate were added into the wells. OD450 was then recorded and referenced to OD540.

Test [1] deals with 3D tumor spheroids of MDA-MB-231 cells. Put plainly: 3D tumor spheroid penetration assay. The format is cell-based, human. The conditions noted are these: Cy5-labeled, 2 and 6 hours. The procedure:
3D Tumor Spheroid Penetration Assay. 3D spheroids of MDA-MB-231 cells were generated using the Spheroid Formation Extracellular Matrix (ECM) as per the company's protocol (Amsbio, Cambridge, MA). Briefly, 3,000 tumor cells were mixed with 50 μL Spheroid Formation ECM and loaded into a Corning™ 96-well Ultra-low Attachment Treated Spheroid Microplate (Corning, Pittsburgh, PA). The plate was centrifuged at 200 g for 3 min at 4° C. The cells were then incubated at 37° C. until the diameter reached approximately 700 μm. The Cy5-labeled CLP002 peptide and anti-PD-L1 antibody were incubated with the spheroids for 2 or 6 hours. After washing, penetration of the peptide and antibody inside the tumor spheroids was determined using confocal microscopy.

The subject of test [2] is IFNγ, PD-L1 and IL-6 in CT26 tumors. Put plainly: ELISA of IFNγ, PD-L1 and IL-6 in harvested CT26 tumors. The format is in vivo, mouse. An excerpt: Animal Study. The animal protocol was approved by the University of Missouri-Kansas City, Institutional Animal Care and Use Committee (IACUC). Five-week old male and female Balb/c mice were purchased from Charles Rivers Laboratories (Wilmington, Mass.) and housed in a temperature and humidity controlled room on a 12-hour light-dark cycle. Approximately 5×10^5 CT26 cells were subcutaneously injected into the right flank. The mice were randomly divided into five different groups (10 mice/group, 50% female, 50% male). The mice were intraperitoneally injected with 2 mg/kg peptide daily when the tumor size reached 50-100 mm^3. The anti-mouse PD-L1 antibody (10F.9G2, BioXcell) was administrated as a positive control at a dose of 10 mg/kg every two days. The tumor size was assessed with a caliper and calculated with the formula 0.5×length×width^2. ELISA kits of PD-L1 (Cat #DY1019-05), IFNγ (Cat #DY485-05), and IL-6 (Cat #DY406-05) were used to measure the expressions of PD-L1, IFNγ, and IL-6, respectively, in tumors as per the company's instructions (R & D Systems, Minneapolis, MN).
For orientation: In an ELISA, binding on a coated surface is turned into a signal by an enzyme label.

Test [3] deals with human PD-L1/CD80 interaction (Homo sapiens, UniProt Q9NZQ7). Put plainly: Blockade of the CD80/PD-L1 interaction. The test is classed as binding. The conditions noted are these: at 10 μM, FIG. 8a.
For test [4], the system named is Jurkat T cells co-cultured with DU-145 cancer cells. Put plainly: Jurkat T cell apoptosis in co-culture with DU-145 cells (Annexin V/PI). The format is cell-based, human. Particulars: co-culture with DU-145 (15.1% untreated); peptide 5 μM or antibody 1 μM, 24 hours. The procedure: (§1) Proliferation and Apoptosis Assays. […] Briefly, 3×10^4 Jurkat T cells were cultured alone or co-cultured with 1.5×10^5 DU-145 cancer cells in a 24-well plate for the proliferation assay. For the apoptosis assay, 6×10^4 Jurkat T cells were cultured alone or co-cultured with 3×10^5 DU-145 cancer cells in a 6-well plate. After incubation with the anti-PD-L1 peptides (5 μM) or anti-PD-L1 antibody (1 μM) for 24 hours, Jurkat T cells were harvested from the supernatant. Proliferation of Jurkat cells was determined using the CellTiter-Glo luminescent cell viability assay (Promega, WI), and apoptosis of the cells were determined using the Dead Cell Apoptosis Kit with Annexin V Alexa Fluor® 488 and Propidium Iodide (Thermo-Fisher Scientific, Pittsburgh, PA) as we described before^21.

The test system of test [5] is CD8+ T cells in CT26 tumor tissues. In words: IHC staining of CD8+ T cells in CT26 tumor tissues. The test is classed as in vivo, mouse. The procedure: Immunohistochemistry (IHC) Staining. Tumor tissues were fixed in 10% formalin, embedded in paraffin, sectioned, and mounted on glass slides by Truman Medical Centers Anatomic Pathology Core (Kansas City, MO). The slides were heated in Tris buffer (pH 9.0) for 45 min to recover antigen. After deparaffinization and rehydration, the sections were stained with the anti-mouse CD8 alpha antibody (Abcam, ab209775) overnight at 4° C. The slides were incubated with a biotinylated goat anti-rabbit secondary antibody, followed by the DAB chromogen mixture. Four sections (2 male and 2 female) were imaged in each group. For each section, 3 regions were randomly selected for imaging.

In test [6] the test system is Jurkat T cells co-cultured with DU-145 cancer cells. In words: Jurkat T cell proliferation in co-culture with DU-145 cells (CellTiter-Glo). The test is classed as cell-based, human. The conditions noted are these: peptide 5 μM, 24 hours. The procedure: as §1
The test system of a further test is 4T1 cancer cell. The test is classed as cell-based, mouse.

Values joined by “and” are separate entries in the source; they are usually repeats but may differ in a detail not shown here. Equal entries are not always repeated. Residues, ends and D or L forms follow the SMILES beside them.

Sequence of mPD-L1 (Q9EP73 19-239 limits assumed): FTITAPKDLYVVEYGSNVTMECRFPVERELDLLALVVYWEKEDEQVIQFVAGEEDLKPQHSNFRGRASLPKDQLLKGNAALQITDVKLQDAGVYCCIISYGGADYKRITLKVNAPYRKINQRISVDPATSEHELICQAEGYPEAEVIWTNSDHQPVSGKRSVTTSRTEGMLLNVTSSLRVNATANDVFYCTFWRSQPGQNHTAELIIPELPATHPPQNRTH
Sequence of human PD-L1/CD80 interaction (Q9NZQ7 19-238 limits assumed): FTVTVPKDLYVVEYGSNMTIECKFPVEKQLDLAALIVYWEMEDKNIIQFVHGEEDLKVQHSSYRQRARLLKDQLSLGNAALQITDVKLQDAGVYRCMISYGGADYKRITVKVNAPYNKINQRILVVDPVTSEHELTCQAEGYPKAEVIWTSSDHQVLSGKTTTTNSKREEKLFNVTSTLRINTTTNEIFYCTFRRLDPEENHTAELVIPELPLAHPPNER

As to `CC(C)C[C@H](NC(=O)[C@H](CC(N)=O)NC(=O)[C@H](Cc1c[nH]c2ccccc12)NC(=O)[C@@H](NC(=O)[C@H](Cc1ccc(O)cc1)NC(=O)[C@H](Cc1ccc(O)cc1)NC(=O)[C@H](CO)NC(=O)[C@H](CCCNC(=N)N)NC(=O)[C@H](Cc1c[nH]cn1)NC(=O)[C@@H](N)Cc1c[nH]c2ccccc12)[C@@H](C)O)C(=O)N[C@@H](CC(N)=O)C(=O)N[C@H](C(=O)O)[C@@H](C)O` [CLP002] (H-WHRSYYTWNLNT-OH; N-terminus and C-terminus assumed), the “Blocking efficiency against mouse PD-1/PD-L1 interaction” value at mPD-L1 (at 10 μM, FIG. 2f) is recorded as 71%. Moreover, the “Blocking Efficiency (%)” value was 71% and 68% on mPD-L1 (mouse PD-L1 protein); 61% in the test with 4T1 cancer cell (4T1 cancer cell). Besides, the IC50 (as a rule, the concentration that gives 50% inhibition) amounted to 1910 nM at mPD-L1 (mouse PD-L1 protein) and 2440 nM with 4T1 cancer cell (2 h). Further, the “Tumor spheroid penetration (in words)” value in test [1] (confocal microscopy) is listed as “better tumor penetration than the antibody”. Further, the “Depth of penetration from the periphery of the spheroids” value in test [1] (spheroids ~700 μm) was “approximately 250 μm”. Further, in test [2], the “IL-6 expression in tumor tissues” value is “decreased expression of IL-6”. Further, in test [3], the “Blocking efficiency against CD80/PD-L1 interaction” value is about 48%. Besides, in test [4], the “Apoptosis of Jurkat cells” value is 10.2%. Further, in test [5], the “Density of CD8+ T cells in tumor tissues” value is on record as “significantly increased”. Further, in test [5], the “Location of CD8+ T cells in the tumor” value is “penetration of CD8^+ T cells into the tumor tissue”. The “Effect on Jurkat T cell proliferation” value in test [6] is listed as “restored Jurkat T cell proliferation”.
